Laboratory results from patent US20260216170A1, “TETRAHYDROISOQUINOLINE HETEROBIFUNCTIONAL BCL-XL DEGRADERS” (Treeline Biosciences, Inc., priority 2023, published 2026).

Target: T1, Human BCL-XL protein (N-terminal HiBiT tagged BCL-XL expressed in HT1080 cells) (Homo sapiens, UniProt Q07817)
T1 construct: expressed in transfected cells; host or cells: HT-1080 (ATCC CCL-121), stably transduced with lentivirus pLV-UBC-N-HiBiT-BCL-XL-PGK-puro and selected with puromycin
Assay: HiBiT Based Degradation Assay
Type: cell-based
Conditions: 24 hours incubation; for DC50: BCL-XL degradation, HT1080 cells expressing N-HiBiT-BCL-XL, normalized with DMSO control, geometric mean for multiple data points, read-out: EC50 (24 h); for Ymin (24 h): bottom of BCL-XL degradation curve (remaining HiBiT-BCL-XL signal vs DMSO control), HT1080 cells
From the text: HiBiT Based Degradation Assay
Human BCL-XL protein coding open reading frame fused with N-terminal HiBiT coding sequence (N-HiBiT-BCL-XL) was synthesized from Integrated DNA Technologies (IDT). Next, N-HiBiT-BCL-XL sequence was cloned into pLV-UBC-PGK-Puro, a lentivirus plasmid purchased from Vectorbuilder, to generate pLV-UBC-N-HiBiT-BCL-XL-PGK-puro. Lentiviral particles were generated from Lenti-X™ 293T cells (Clontech) by co-transfection of pLV-UBC-N-HiBiT-BCL-XL-PGK-puro plasmids and lentiviral packaging plasmid mix (Cellecta). HT-1080 [HT1080](ATCC CCL-121™) cells were infected with the lentivirus, and HT1080 cells stably integrated with the lentiviral vector were established by incubation with 1 μg/mL puromycin (Thermofisher). HT1080 cells expressing N-terminal HiBiT tagged BCL-XL were dispensed into 384-well plates pre-spotted with compounds at varying concentrations. Three thousand cells were seeded into each well in 40 μL of RPMI 1640 media. After 24 hours of incubation at 37° C. with 5% CO2, 30 μL of the NANO-GLO® HiBiT Lytic Detection System working solution (Promega) was added to each well and incubated at room temperature for 30 min. After incubation, luminescence was read on a PHERAstar FSX Plate Reader (BMG). BCL-XL degradation at each indicated concentration was normalized with DMSO control. The BCL-XL degradation curves were plotted using a four-parameter logistic model. For compounds displaying hook effects, curve fitting was performed using bottom point of hook curves (i.e., the point of Ymin) as bottom plateau to calculate EC50. For compounds with multiple data points, the geometric mean is presented.

T1 sequence (Q07817 whole entry): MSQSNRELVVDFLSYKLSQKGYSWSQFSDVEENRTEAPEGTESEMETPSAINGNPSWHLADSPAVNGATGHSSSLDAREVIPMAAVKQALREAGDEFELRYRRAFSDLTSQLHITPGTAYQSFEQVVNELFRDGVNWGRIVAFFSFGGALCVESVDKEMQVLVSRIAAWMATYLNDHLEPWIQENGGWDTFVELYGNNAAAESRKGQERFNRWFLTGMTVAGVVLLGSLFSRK

Row | Structure (SMILES) | DC50 [nM] | Ymin (24 h)
1 | COc1c(NC(=O)CN2CCC(CC[C@@H](C)Oc3ccc(-c4ccc(N5CCc6cccc(C(=O)Nc7nc8ccccc8s7)c6C5)nc4C(=O)O)c(C)c3)CC2)ccc2c(C3CCC(=O)NC3=O)nn(C)c12 (single isomer, unassigned) [Compound 223b] | 10 to 100 | A (Ymin < 30%)
2 | Cc1cc(OC2CC3(CCN(CC(=O)Nc4ccc5c(C6CCC(=O)NC6=O)nn(C)c5c4F)CC3)C2)ccc1-c1ccc(N2CCc3ccnc(C(=O)Nc4nc5ccccc5s4)c3C2)nc1C(=O)O (stereo not drawn) [Compound 205] | < 10 | A (Ymin < 30%)
3 | Cc1cc(OCCC[C@@H]2CCN(CC(=O)Nc3ccc4c(C5CCC(=O)NC5=O)nn(C)c4c3)[C@@H](C)C2)ccc1-c1ccc(N2CCc3ccnc(C(=O)Nc4nc5ccccc5s4)c3C2)nc1C(=O)O (stereo partly drawn) [Compound 219a] | < 10 | A (Ymin < 30%)
4 | Cn1nc(C2CCC(=O)NC2=O)c2ccc(NC(=O)CN3CCC4(CC3)CC(COc3ccc(-c5ccc(N6CCc7cccc(C(=O)Nc8nc9ccccc9s8)c7C6)nc5C(=O)O)c(C(F)(F)F)c3)C4)c(F)c21 (stereo not drawn) [Compound 186] | 10 to 100 | B (30% ≤ Ymin < 50%)
5 | Cc1c(OCC[C@@H]2C[C@H]3CC[C@@H](C2)N3CC(=O)Nc2ccc3c(C4CCC(=O)NC4=O)nn(C)c3c2)cccc1-c1ccc(N2CCc3cccc(C(=O)Nc4nc5ccccc5s4)c3C2)nc1C(=O)O (stereo partly drawn) [Compound 174a] | < 10 | A (Ymin < 30%)
6 | COc1c(NC(=O)CN2CCC3(CC2)CC(COc2ccc(-c4ccc(N5CCc6cccc(C(=O)Nc7nc8ccccc8s7)c6C5)nc4C(=O)O)c(C(F)(F)F)c2)C3)ccc2c(C3CCC(=O)NC3=O)nn(C)c12 (stereo not drawn) [Compound 144, 6-(8-(benzo[d]thiazol-2-ylcarbamoyl)-3,4-dihydroisoquinolin-2(1H)-yl)-3-(4-((7-(2-((3-(2,6-dioxopiperidin-3-yl)-7-methoxy-1-methyl-1H-indazol-6-yl)amino)-2-oxoethyl)-7-azaspiro[3.5]nonan-2-yl)methoxy)-2-(trifluoromethyl)phenyl)picolinic acid] | 10 to 100 | B (30% ≤ Ymin < 50%)
7 | Cc1cc(OC[C@@H]2C[C@H]2CC2CCN(CC(=O)Nc3ccc4c(C5CCC(=O)NC5=O)nn(C)c4c3)CC2)ccc1-c1ccc(N2CCc3cccc(C(=O)Nc4nc5ccccc5s4)c3C2)nc1C(=O)O (single isomer, unassigned) [Compound 1002c] | < 10 | A (Ymin < 30%)
8 | Cc1cc(OCCCC2CCN(CCOc3ccc4c(C5CCC(=O)NC5=O)nn(C)c4c3)CC2)ccc1-c1ccc(N2CCc3cccc(C(=O)Nc4nc5ccccc5s4)c3C2)nc1C(=O)O (stereo not drawn) [Compound 178, 6-[8-(1,3-benzothiazol-2-ylcarbamoyl)-3,4-dihydro-1H-isoquinolin-2-yl]-3-[4-[3-[1-[2-[3-(2,6-dioxo-3-piperidyl)-1-methyl-indazol-6-yl]oxyethyl]-4-piperidyl]propoxy]-2-methyl-phenyl]pyridine-2-carboxylic acid] | < 10 | A (Ymin < 30%)
9 | Cc1cc(OCC2CC3(CCN(CC(=O)Nc4ccc5c(C6CCC(=O)NC6=O)nn(C)c5c4C(F)(F)F)CC3)C2)ccc1-c1ccc(N2CCc3cccc(C(=O)Nc4nc5ccccc5s4)c3C2)nc1C(=O)O (stereo not drawn) [Compound 136] | 10 to 100 | B (30% ≤ Ymin < 50%)
10 | Cc1c(OC[C@H]2C[C@H]2C2CCN(CC(=O)Nc3ccc4c(C5CCC(=O)NC5=O)nn(C)c4c3)CC2)cccc1-c1ccc(N2CCc3cccc(C(=O)Nc4nc5ccccc5s4)c3C2)nc1C(=O)O (single isomer, unassigned) [Compound 1001c] | 10 to 100 | B (30% ≤ Ymin < 50%)
11 | COc1c(NC(=O)CN2CCC3(CC2)CC(Oc2ccc(-c4ccc(N5CCc6cccc(C(=O)Nc7nc8ccccc8s7)c6C5)nc4C(=O)O)c(C)c2)C3)ccc2c(C3CCC(=O)NC3=O)nn(C)c12 (stereo not drawn) [Compound 170, 6-(8-(benzo[d]thiazol-2-ylcarbamoyl)-3,4-dihydroisoquinolin-2(1H)-yl)-3-(4-((7-(2-((3-(2,6-dioxopiperidin-3-yl)-7-methoxy-1-methyl-1H-indazol-6-yl)amino)-2-oxoethyl)-7-azaspiro[3.5]nonan-2-yl)oxy)-2-methylphenyl)picolinic acid] | < 10 | A (Ymin < 30%)
12 | Cc1c(OCCC[C@@H]2C[C@H]3CC[C@@H](C2)N3CC(=O)Nc2ccc3c(C4CCC(=O)NC4=O)nn(C)c3c2)cccc1-c1ccc(N2CCc3cccc(C(=O)Nc4nc5ccccc5s4)c3C2)nc1C(=O)O (stereo partly drawn) [Compound 175a] | < 10 | B (30% ≤ Ymin < 50%)
13 | Cc1cc(OC2CC3(CCN(CC(=O)Nc4ccc5c(C6CCC(=O)NC6=O)nn(C)c5c4F)CC3)C2)ccc1-c1ccc(N2CCc3cccc(C(=O)Nc4nc5ccccc5s4)c3C2)nc1C(=O)O (stereo not drawn) [Compound 191] | < 10 | B (30% ≤ Ymin < 50%)
14 | Cc1cc(OCCCC2CCN(CC(=O)Nc3cc4c(cc3F)c(C3CCC(=O)NC3=O)nn4C)CC2)ccc1-c1ccc(N2CCc3cccc(C(=O)Nc4nc5ccccc5s4)c3C2)nc1C(=O)O (stereo not drawn) [Compound 109] | 10 to 100 | C (50% ≤ Ymin < 70%)
15 | COc1c(NC(=O)CN2CCC3(CC2)CC(Oc2ccc(-c4ccc(N5CCc6cccc(C(=O)Nc7nc8ccccc8s7)c6C5)nc4C(=O)O)c(C(F)(F)F)c2)C3)ccc2c(C3CCC(=O)NC3=O)nn(C)c12 (stereo not drawn) [Compound 172, 6-(8-(benzo[d]thiazol-2-ylcarbamoyl)-3,4-dihydroisoquinolin-2(1H)-yl)-3-(4-((7-(2-((3-(2,6-dioxopiperidin-3-yl)-7-methoxy-1-methyl-1H-indazol-6-yl)amino)-2-oxoethyl)-7-azaspiro[3.5]nonan-2-yl)oxy)-2-(trifluoromethyl)phenyl)picolinic acid] | 10 to 100 | B (30% ≤ Ymin < 50%)
16 | Cn1nc(C2CCC(=O)NC2=O)c2ccc(NC(=O)CN3CCC4(CC3)CC(COc3cccc(-c5ccc(N6CCc7cccc(C(=O)Nc8nc9ccccc9s8)c7C6)nc5C(=O)O)c3C(F)(F)F)C4)cc21 (stereo not drawn) [Compound 132, 6-(8-(benzo[d]thiazol-2-ylcarbamoyl)-3,4-dihydroisoquinolin-2(1H)-yl)-3-(3-((7-(2-((3-(2,6-dioxopiperidin-3-yl)-1-methyl-1H-indazol-6-yl)amino)-2-oxoethyl)-7-azaspiro[3.5]nonan-2-yl)methoxy)-2-(trifluoromethyl)phenyl)picolinic acid] | 10 to 100 | B (30% ≤ Ymin < 50%)
17 | Cc1c(NCCCC2CCN(CC(=O)Nc3ccc4c(C5CCC(=O)NC5=O)nn(C)c4c3)CC2)cccc1-c1ccc(N2CCc3cccc(C(=O)Nc4nc5ccccc5s4)c3C2)nc1C(=O)O (stereo not drawn) [Compound 217] | < 10 | B (30% ≤ Ymin < 50%)
18 | Cc1cc(O[C@@H](C)CCC2CCN(CC(=O)Nc3ccc4c(C5CCC(=O)NC5=O)nn(C)c4c3F)CC2)ccc1-c1ccc(N2CCc3cccc(C(=O)Nc4nc5ccccc5s4)c3C2)nc1C(=O)O (single isomer, unassigned) [Compound 224a] | 10 to 100 | B (30% ≤ Ymin < 50%)
19 | Cn1nc(C2CCC(=O)NC2=O)c2ccc(NC(=O)CN3CCC4(CCC(Oc5cccc(-c6ccc(N7CCc8cccc(C(=O)Nc9nc%10ccccc%10s9)c8C7)nc6C(=O)O)c5C(F)(F)F)CC4)CC3)cc21 (stereo not drawn) [Compound 196] | < 10 | B (30% ≤ Ymin < 50%)
20 | Cc1c(OCCC[C@H]2[C@@H]3C[C@H]2CN(CC(=O)Nc2ccc4c(C5CCC(=O)NC5=O)nn(C)c4c2)C3)cccc1-c1ccc(N2CCc3cccc(C(=O)Nc4nc5ccccc5s4)c3C2)nc1C(=O)O (stereo partly drawn) [Compound 176a] | 10 to 100 | C (50% ≤ Ymin < 70%)
21 | Cc1c(OC2CC3(CCN(CC(=O)Nc4ccc5c(C6CCC(=O)NC6=O)nn(C)c5c4F)CC3)C2)cccc1-c1ccc(N2CCc3ccnc(C(=O)Nc4nc5ccccc5s4)c3C2)nc1C(=O)O (stereo not drawn) [Compound 204, 6-(8-(benzo[d]thiazol-2-ylcarbamoyl)-3,4-dihydro-2,7-naphthyridin-2(1H)-yl)-3-(3-((7-(2-((3-(2,6-dioxopiperidin-3-yl)-7-fluoro-1-methyl-1H-indazol-6-yl)amino)-2-oxoethyl)-7-azaspiro[3.5]nonan-2-yl)oxy)-2-methylphenyl)picolinic acid] | < 10 | B (30% ≤ Ymin < 50%)
